Results on one molecule are retold here after publication PMC8913831 (Scientific Reports, 2022).

For the experiment, the target named is T1, CbCBP (cellobiose phosphorylase) (Caldicellulosiruptor bescii, UniProt A0ABY1SBL4).
T1 construct: gene SAMN05216240_2653; C-terminal (His)6 tag, pET20b, E. coli BL21 CodonPlus-RIL; 94 kDa on SDS-PAGE, about 200 kDa native (homodimer); GH94
T1 sequence (A0ABY1SBL4 1-811): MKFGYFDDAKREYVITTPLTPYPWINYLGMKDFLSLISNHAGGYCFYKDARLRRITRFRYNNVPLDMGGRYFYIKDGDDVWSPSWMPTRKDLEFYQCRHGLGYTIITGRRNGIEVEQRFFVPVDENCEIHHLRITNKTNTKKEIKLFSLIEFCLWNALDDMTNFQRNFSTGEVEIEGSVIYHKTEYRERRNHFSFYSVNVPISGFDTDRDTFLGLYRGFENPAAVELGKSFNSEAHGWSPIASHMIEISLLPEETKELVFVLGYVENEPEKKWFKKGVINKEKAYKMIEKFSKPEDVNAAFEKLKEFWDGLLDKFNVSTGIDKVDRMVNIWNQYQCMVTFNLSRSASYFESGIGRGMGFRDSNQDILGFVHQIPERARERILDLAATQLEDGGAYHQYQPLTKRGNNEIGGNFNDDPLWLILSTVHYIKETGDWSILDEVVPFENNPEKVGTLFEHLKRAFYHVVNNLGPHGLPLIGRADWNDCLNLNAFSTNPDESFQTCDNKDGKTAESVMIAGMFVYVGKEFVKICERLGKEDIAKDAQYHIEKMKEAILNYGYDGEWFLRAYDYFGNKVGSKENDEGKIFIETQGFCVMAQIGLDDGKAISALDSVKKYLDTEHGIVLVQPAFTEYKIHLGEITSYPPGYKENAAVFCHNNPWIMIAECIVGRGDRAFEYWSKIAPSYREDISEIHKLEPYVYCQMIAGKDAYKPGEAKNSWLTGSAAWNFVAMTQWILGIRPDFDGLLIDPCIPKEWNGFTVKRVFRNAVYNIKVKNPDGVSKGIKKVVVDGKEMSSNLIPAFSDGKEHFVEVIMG
The experiment is described as follows: initial velocity, D-glucose release (glucose oxidase-peroxidase), fit to ordered Bi Bi equation. Type of experiment: biochemical. The note with it: phosphorolysis; substrate constant of the ordered Bi Bi rate equation with A = cellobiose, not an inhibitor constant; text states Pi binds first; MES-NaOH pH 7.0; 75 °C in Methods, 70 °C in Results. From the text: initial velocity, D-glucose release (glucose oxidase-peroxidase), fit to ordered Bi Bi equation on CbCBP (cellobiose phosphorylase)

For the molecule `OC[C@H]1O[C@@H](O[C@H]2[C@H](O)[C@@H](O)C(O)O[C@@H]2CO)[C@H](O)[C@@H](O)[C@@H]1O` (stereo partly shown) [cellobiose], the “Ki^A” value turned out to be 3.3 mM.
